From the supplement of paper PMC10307832

Legend:
Experiment in all cases: relative viability (nuclei count vs DMSO), 5 days (fraction); higher = more cells survive
[1] = compound: Cc1cnc(CNC(=O)c2c(=O)c3ccc(N4CCCN(C)CC4)nc3n3c2sc2ccccc23)cn1 [CX-5461] + CC1(C)CCC(c2ccc(Cl)cc2)=C(CN2CCN(c3ccc(C(=O)NS(=O)(=O)c4ccc(N[C@H](CCN5CCOCC5)CSc5ccccc5)c(S(=O)(=O)C(F)(F)F)c4)cc3)CC2)C1 [Navitoclax] (partner 0.5 µM)
Procedure, shortened: (§1)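 Nuclei were stained with Hoechst during a one-step fixation (final 0.05% Triton X-100, 1% formaldehyde, 1 ug/ml Hoechst) carried out 5 days after dosing, then counted on 4× images. The cells, lung cancer lines in 1536-well plates, had been dosed by pin tool the day after seeding with one drug alone or a fixed anchor-drug dose plus five library-drug doses (not always all listed) in √10 steps. Relative viability is the nuclei count in treated wells divided by that in vehicle wells, and each value is the median of duplicate plates.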

[2] = compound: O=C(Nc1cc(C(F)(F)F)cc(C(F)(F)F)c1)c1cc(Cl)ccc1O [IMD-0354]
Procedure, shortened: (§2)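 Cells of lung cancer lines were placed in 1536-well plates and kept overnight at 37 °C. Pinning then delivered five library-drug doses (not always all listed), spaced by √10, onto plates anchored with vehicle, and the cells were left 5 days without changing medium. One step fixed, permeabilised and stained them with Hoechst, and MetaXpress counted nuclei in 4× images. Viability, as a median over plates, is treated-well nuclei divided by vehicle-well nuclei, with acceptance only at control CV below 25% and at least one doubling.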

[3] = compound: Cc1cnc(CNC(=O)c2c(=O)c3ccc(N4CCCN(C)CC4)nc3n3c2sc2ccccc23)cn1 [CX-5461]
Procedure, shortened: as §2

[4] = compound: O=C(Nc1cc(C(F)(F)F)cc(C(F)(F)F)c1)c1cc(Cl)ccc1O [IMD-0354] + N=C(N)NC(=N)NCCc1ccccc1 [Phenformin] (partner 250 µM)
Procedure, shortened: as §1

Row | Cell Line | relative viability ([1]; first compound 0.01 µM) | relative viability ([1]; first compound 0.03162 µM) | relative viability ([1]; first compound 0.1 µM) | relative viability ([1]; first compound 0.3162 µM) | relative viability ([1]; first compound 1 µM) | relative viability ([2]; 0.04 µM) | relative viability ([2]; 0.1265 µM) | relative viability ([2]; 0.4 µM) | relative viability ([2]; 1.265 µM) | relative viability ([2]; 4 µM) | relative viability ([3]; 0.01 µM) | relative viability ([3]; 0.03162 µM) | relative viability ([3]; 0.1 µM) | relative viability ([3]; 0.3162 µM) | relative viability ([3]; 1 µM) | relative viability ([4]; first compound 0.04 µM) | relative viability ([4]; first compound 0.1265 µM) | relative viability ([4]; first compound 0.4 µM) | relative viability ([4]; first compound 1.265 µM) | relative viability ([4]; first compound 4 µM)
1 | Calu-6 | 0.659 | 0.872 | 0.743 | 0.852 | 0.157 | 0.947 | 0.913 | 0.648 | 0.181 | 0.125 | 1.08 | 1.07 | 1.03 | 0.987 | 0.385 | – | – | – | – | –
2 | LC-2-ad | 0.449 | 0.533 | 0.434 | 0.553 | 0.362 | 0.948 | 0.976 | 0.579 | 0.193 | 0.17 | 0.981 | 1.02 | 0.955 | 0.978 | 0.749 | 0.612 | 0.548 | 0.232 | 0.267 | 0.17
3 | CAL-12T | 1.18 | 1.25 | – | 1.05 | 0.573 | 1.07 | 0.922 | 0.545 | 0.251 | 0.162 | 1.02 | 0.994 | 0.947 | 0.936 | 0.662 | 0.623 | 0.512 | 0.252 | 0.117 | 0.134
4 | RERF-LC-KJ | 0.95 | 0.969 | 1.17 | 0.887 | 0.837 | 1.09 | 0.992 | 0.635 | 0.384 | 0.234 | 0.96 | 1.05 | 0.943 | 0.946 | 0.879 | 0.478 | 0.423 | 0.337 | 0.289 | 0.207
5 | NCI-H1650 | 1.29 | 1.02 | – | 1.23 | 0.2 | 0.96 | 0.771 | 0.616 | 0.252 | 0.174 | 0.965 | 0.948 | 0.406 | 0.794 | 0.205 | 0.46 | 0.396 | 0.304 | 0.174 | 0.209
6 | ABC-1 | – | – | – | – | – | 1.07 | 1.05 | 0.498 | 0.222 | 0.259 | 1.04 | 0.785 | 0.712 | 0.309 | 0.568 | 0.227 | 0.207 | 0.224 | 0.197 | 0.194
7 | NCI-H358 | – | – | – | – | – | 1.01 | 1 | 0.557 | 0.232 | 0.274 | 0.971 | 1.02 | 0.872 | 0.871 | 0.633 | 0.348 | 0.241 | 0.17 | 0.121 | 0.0927
8 | NCI-H1299 | 1.1 | 1.06 | 1.04 | 1.04 | 1.05 | 0.85 | 1.02 | 0.638 | 0.221 | 0.179 | 0.998 | 0.99 | 1.02 | 1.01 | 0.944 | – | – | – | – | –
9 | EBC-1 | 0.391 | 0.374 | 0.437 | 0.416 | 0.197 | 0.914 | 0.971 | 0.585 | 0.304 | 0.205 | 1.01 | 1.05 | 1.08 | 0.907 | 0.782 | – | – | – | – | –
10 | NCI-H2342 | – | – | – | – | – | 1.03 | 1.05 | 0.764 | 0.633 | 0.476 | 0.997 | 1 | 0.834 | 1.04 | 0.889 | 0.632 | 0.593 | 0.455 | 0.4 | 0.383
11 | NCI-H650 | – | – | – | – | – | 1.13 | 0.954 | 0.594 | 0.555 | 0.214 | 0.919 | 1.02 | 0.788 | 0.879 | 0.768 | 0.448 | 0.451 | 0.371 | 0.234 | 0.2
12 | NCI-H1563 | – | – | – | – | – | 0.979 | 0.974 | 0.856 | 0.472 | 0.402 | 0.963 | 0.954 | 0.806 | 0.939 | 0.64 | 0.688 | 0.622 | 0.53 | 0.329 | 0.37
13 | SW 900 | – | – | – | – | – | 0.987 | 0.889 | 0.509 | 0.239 | 0.243 | 0.918 | 1.11 | 0.586 | 0.877 | 0.401 | 0.661 | 0.48 | 0.302 | 0.185 | 0.202
14 | IA-LM | 0.941 | 0.993 | 0.724 | 0.769 | 0.272 | 0.791 | 0.875 | 0.529 | 0.389 | 0.128 | 0.987 | 0.933 | 1 | 1.03 | 0.561 | – | – | – | – | –
15 | NCI-H1703 | 1.22 | 1.28 | 0.932 | 1.13 | 0.313 | 1.11 | 1.02 | 0.507 | 0.282 | 0.14 | 0.955 | 1.06 | 0.91 | 1.09 | 0.569 | – | – | – | – | –
16 | LCLC-103H | – | – | – | – | – | 1.02 | 1.01 | 0.653 | 0.457 | 0.331 | 1.02 | 1.05 | 0.969 | 0.944 | 0.969 | 0.39 | 0.304 | 0.197 | 0.214 | 0.177
17 | NCI-H1648 | – | – | – | – | – | 0.588 | 0.686 | 0.685 | 0.814 | 0.365 | 0.614 | 0.952 | 0.674 | 0.742 | 0.851 | – | – | – | – | –
